# In patent US6204002A, “Gangliosides having fluorescent-tagged ceramide moieties” (priority 1996, dated 2001):
# What was measured:
# [1] = assay type: physicochemical; details: densitometer, GM3 adhered to a microplate; insufficient to detect influenza virus
# [2] = tested on: influenza virus A/Aichi/2/68 (H3N2); test: TLC/virus binding assay: binding activity of ganglioside to influenza virus
SMILES,fluorescence of virus-bound compound in hydrophobic conditions [1],sensitivity relative to conventional sialyl(α2-6)lactosylceramide [2],"relative measurement intensity (response of densitometer at 620 nm minus response at 430 nm) ([2]; 6 nmol ganglioside spotted on TLC plate, reference point set equal to 100, FIG. 1)","detection of influenza virus (sensitivity) ([2]; TLC/virus binding assay, A/Aichi/2/68 (H3N2))","detection sensitivity relative to GM3 ([2]; according to FIG. 1, A/Aichi/2/68 (H3N2))"
O=C1OC2(c3ccc(O)cc3Oc3cc(O)ccc32)c2ccccc21 [GM3 fluorescein],very weak fluorescence,,,,
"CCCCCCCCCCCCC/C=C/[C@@H](O)[C@H](CO[C@@H]1O[C@H](CO)[C@@H](O[C@@H]2O[C@H](CO[C@]3(C(=O)O)C[C@H](O)[C@@H](NC(C)=O)[C@H]([C@H](O)[C@H](O)CO)O3)[C@H](O)[C@H](O)[C@H]2O)[C@H](O)[C@H]1O)NC(=O)CCc1ccc(/C=C/C=C/C=C/c2ccccc2)cc1 [compound 3, O-(5-acetamide-3,5-dideoxy-D-glycero-α-D-galacto-2-nonuropyranosylonate)-(2→6)-O-(β-D-galactopyranosyl)-(1→4)-O-(β-D-glucopyranosyl)-(1→1)-(2S, 3R,4E)-2-(3-(p-(6-phenyl)1,3,5-hexatrienyl)phenylpropionamide)-4-octadecene-1,3-diol]",,4 times,100%,very high sensitivity,12 times
